Series [1] deals with T1, glucocorticoid (GR) receptor (Homo sapiens, UniProt P04150).
T1 sequence (P04150 1-777): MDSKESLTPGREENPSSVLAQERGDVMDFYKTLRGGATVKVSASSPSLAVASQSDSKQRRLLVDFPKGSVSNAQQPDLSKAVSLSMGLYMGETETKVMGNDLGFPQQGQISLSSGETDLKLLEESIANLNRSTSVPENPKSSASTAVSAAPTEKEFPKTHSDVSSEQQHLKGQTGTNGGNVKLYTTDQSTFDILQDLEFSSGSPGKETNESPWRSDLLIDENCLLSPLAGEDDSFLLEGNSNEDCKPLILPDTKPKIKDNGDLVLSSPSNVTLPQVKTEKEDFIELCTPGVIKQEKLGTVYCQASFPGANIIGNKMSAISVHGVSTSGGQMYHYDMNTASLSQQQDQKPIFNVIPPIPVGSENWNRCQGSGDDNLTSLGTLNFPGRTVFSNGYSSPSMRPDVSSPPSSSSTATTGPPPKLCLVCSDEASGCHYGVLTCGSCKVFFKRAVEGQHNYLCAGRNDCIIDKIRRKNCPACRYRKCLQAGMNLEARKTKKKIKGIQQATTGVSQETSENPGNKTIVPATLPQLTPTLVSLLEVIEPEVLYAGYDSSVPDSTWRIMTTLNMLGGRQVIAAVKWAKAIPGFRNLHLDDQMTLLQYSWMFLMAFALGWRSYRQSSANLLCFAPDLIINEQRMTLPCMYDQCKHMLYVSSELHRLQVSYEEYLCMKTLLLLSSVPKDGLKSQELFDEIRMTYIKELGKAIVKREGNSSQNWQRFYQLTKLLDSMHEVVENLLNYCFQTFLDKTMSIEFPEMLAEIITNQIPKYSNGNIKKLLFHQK
To be noted: cited from earlier work.

Series [2] concerns patients with chronic severe depression. The following applies: about 2.5 to 4.4 mg/kg per day, up to eight weeks; four patients; cited from earlier work.
The conditions of series [3]: one study; cited from earlier work.
For series [4], the system named is patients with severe Cushing Syndrome. To be noted: 400 to 800 mg per day; adrenal cancers and ectopic ACTH secretion from lung cancer; cited from earlier work.
The target in another series is T2, progesterone receptor (Homo sapiens, UniProt P06401).
T2 sequence (P06401 1-933): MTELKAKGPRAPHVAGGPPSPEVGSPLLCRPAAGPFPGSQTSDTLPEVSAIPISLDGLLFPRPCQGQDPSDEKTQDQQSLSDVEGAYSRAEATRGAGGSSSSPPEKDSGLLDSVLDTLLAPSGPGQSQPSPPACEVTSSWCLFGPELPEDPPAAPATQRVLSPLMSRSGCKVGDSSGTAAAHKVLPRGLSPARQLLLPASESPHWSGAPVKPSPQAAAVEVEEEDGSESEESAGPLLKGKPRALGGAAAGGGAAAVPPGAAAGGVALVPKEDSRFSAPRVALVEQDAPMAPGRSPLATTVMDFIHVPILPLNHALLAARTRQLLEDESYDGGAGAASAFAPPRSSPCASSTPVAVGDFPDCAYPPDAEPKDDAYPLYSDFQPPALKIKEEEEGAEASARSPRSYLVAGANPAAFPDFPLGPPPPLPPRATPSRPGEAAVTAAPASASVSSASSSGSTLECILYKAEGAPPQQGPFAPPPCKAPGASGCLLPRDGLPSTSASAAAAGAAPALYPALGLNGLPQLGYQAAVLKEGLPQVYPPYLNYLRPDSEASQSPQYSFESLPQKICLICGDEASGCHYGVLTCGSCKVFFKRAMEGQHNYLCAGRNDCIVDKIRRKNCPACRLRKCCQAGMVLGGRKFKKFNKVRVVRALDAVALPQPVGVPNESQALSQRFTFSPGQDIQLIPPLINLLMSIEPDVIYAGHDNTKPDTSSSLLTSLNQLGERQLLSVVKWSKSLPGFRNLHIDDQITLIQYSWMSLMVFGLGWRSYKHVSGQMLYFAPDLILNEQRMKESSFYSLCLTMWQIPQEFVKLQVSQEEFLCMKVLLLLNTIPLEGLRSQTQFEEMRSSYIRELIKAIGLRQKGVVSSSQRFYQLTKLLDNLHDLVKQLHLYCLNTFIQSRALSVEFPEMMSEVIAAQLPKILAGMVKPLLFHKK
The following applies: cited from earlier work.

The test system of series [5] is patients with psychotic major depression. Briefly: Double-blind placebo-controlled cross-over study of mifepristone in psychotic major depression. It counts as in vivo, human. An excerpt:
The study requires a nine day, closely observed hospital stay. Individuals included in this study were diagnosed as psychotic depressives using criteria as set forth by the DSM-IV, as described above. This diagnosis was confirmed by two psychiatrists. All are between the ages of 18 and 75. Apart from hypercortisolemia, they have no major medical problems. They have no signs of Cushings Syndrome. No […] of childbearing potential are included in the study. Individuals admitting to having used illicit drugs within a month prior to admission for the study are excluded. Individuals admitting to drinking in excess of two ounces of alcohol daily are excluded from the study. No anti-psychotic medication was taken within three days of entering the study. While, concurrent anti-depressant was not a criteria used to excluded anyone from the study, no individual was started on an anti-depressant medication while participating in the study. All patients gave their written consent to a protocol approved by the Human Subjects Committee at Stanford University Medical Center. All participants were given the Hamilton Rating Scale for Depression (HAM-D, Hamilton (1962) J. Neurol. Psychiatry, supra, discussed above) and the Structured Clinical Interview for DSM-IV Axis I mood disorders tests (as described above). Only individuals with a score greater than 21 on the HAM-D test continued in the study (a HAM-D score of >21 indicates moderate to severe depression). […] Formal psychiatric assessment, including the HAM-D rating scale (Overall (1962) supra; Kaplan (1995), supra, discussed above), the Brief Psychiatric Rating Scale (BPRS) (Overall (1962) supra; Kaplan (1995), supra, discussed above) and the […] (GAF) evaluation (DSM-IV, supra, pages 30 to 31; Kaplan, ed. (1995), supra) was carried out on days one, three, five, seven and nine of the study at 10:00 AM (at 1000 hours). A paragraph recall test (see below) was given at 11:30 AM (at 1130 hours) on days one, five and nine. Cortisol levels were measured serially every half hour from […] to 4:00 PM (1300 to 1600 hours) on days one, five and nine. Plasma ACTH and Plasma HVA was measured serially every hour from 1300 to 1600 on days one, five and nine. Routine biological and hematological studies were conducted daily, particularly to screen for evidence of relative adrenal insufficiency, i.e., hypoglycemia, eosinophilia. One means used to assess/measure improvement, or amelioration of psychosis in the study was the “Wallach Recognition Test” (a paragraph recall test). Newly evaluated individuals with an initial diagnosis of psychotic major depression, diagnosed as described above, were given a recognition task adapted from Wallach (1980) supra. Subjects listened to a taped recording of a sixteen-word list presented at the rate of one word every ten seconds. The-subject repeats each of the sixteen words and is asked to think of what the words mean to them. Following the presentation of the list, the subject engages in a twenty minute motor distraction task. The subject then listens to a fifty-word list containing the sixteen original target words plus thirty-four background distraction words. The subject then is asked to discern between target words and distractors. Sixteen newly admitted patients with an admitting diagnosis of psychotic major depression confirmed by two psychiatrists were enrolled in the study. Each patient conformed with all of the above described criteria. […] In the patients administered mifepristone, three two hundred milligram tablets per day were given for four days. […] The tablets were manufactured by Shanghai HuaLian Pharmaceuticals Co., Ltd., Shanghai, China (currently the sole commercial source of RU486). Both patients and the investigators are “blind” as to which compound (test mifepristone or placebo) the patient received.

Regarding `CC#C[C@]1(O)CC[C@H]2[C@@H]3CCC4=CC(=O)CCC4=C3[C@@H](c3ccc(OCCN(C)C)cc3)C[C@@]21C` [RU009, 11-beta-(4 dimethyl-amninoethoxyphenyl)-17-alpha-(propynyl-17beta-hydroxy-4,9-estradien-3-one)], in series [1], the GR antagonist activity entry is recorded as “GR antagonist effects”.
On to `CC#C[C@]1(O)CC[C@H]2[C@@H]3CCC4=CC(=O)CCC4=C3[C@@H](c3ccc(N(C)C)cc3)C[C@@]21C` [mifepristone, 17-beta-hydroxy-11-beta-(4-dimethyl-aminophenyl)-17-alpha-(1-propynyl)-estra-4,9-dien-3-one], for which the response to treatment result in series [2] was “responded to treatment”. The “fraction of the daily dose excreted in the urine” value in series [3] was “less than 0.5%”. Also, the GR antagonist activity result in series [1] is “powerful antagonist”. Further, the “effect on acute psychosis” value in series [4] is recorded as “useful in rapidly reversing acute psychosis”. For the same compound, the “progesterone receptor antagonist activity” value at progesterone receptor was “powerful antagonist”. The “adverse effects reported by patient or observed by raters or staff” value in series [5] (600 mg per day orally, four days) was “no adverse effects”. Moreover, the psychiatric condition entry in series [5] (600 mg per day orally, four days, three patients completed, blind not broken) was “significant improvement”. Moreover, the “Wallach Recognition Test: amelioration of psychosis” value in series [5] (all individuals who received mifepristone) was “showed an amelioration of their psychosis”. In addition, the “HAM-D score after treatment” value in series [5] (average, score after decline) is given as “about 13.5”. The “HAM-D score before treatment” value in series [5] (average, starting score) is reported as “about 26”. Besides, in series [5] (score after decline), the “Brief Psychiatric Rating Scale (BPRS) score after treatment” value is on record as “about 29.5”. Moreover, the “Clinical Global Impression (CGI scale) score after treatment” value in series [5] (score after drop, mildly depressed) was “about 3”. Further, the “Brief Psychiatric Rating Scale (BPRS) score before treatment” value in series [5] (starting score) was “about 40.5”. Further, the “Clinical Global Impression (CGI scale) score before treatment” value in series [5] (starting score, indicating markedly depressed) is on record as “about 5”.

These data come from patent US6362173B1, “Methods for treating psychosis associated with cocaine addiction with glucocorticoid receptor antagonists” (The Board of Trustees of the Leland Stanford Junior …, priority 1997, dated 2002).
